Our source for the pest or weed control values is US9096560B2, “5-heterocyclylalkyl-3-hydroxy-2-phenylcyclopent-2-enones as herbicides” (Syngenta Limited, priority 2008, dated 2015).

What all share (assay type): in vivo
Test [1] has as its system Lolium perenne (LOLPE). As to the kind of experiment: Example B pre-emergence herbicidal test, LOLPE. Particulars: Lolium perenne, 312 h, rate 250 g/ha, evaluated after 13 days, 100=total damage to plant, 0=no damage to plant. The method, boiled down:
(§1)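 After sowing in standard soil, pots spent a day in the glasshouse (24/16° C, 14 h photoperiod, 65% humidity) before spraying with compound in acetone/water 50:50 with 0.5% Tween 20. Watering followed twice a day, and plants were evaluated 13 days on, with 100 meaning complete damage.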

For test [2], the system named is Alopecurus myosuroides (ALOMY). As to the kind of experiment: Example B pre-emergence herbicidal test, ALOMY. Particulars: Alopecurus myosuroides, 312 h, rate 250 g/ha, evaluated after 13 days, 100=total damage to plant, 0=no damage to plant. The method in brief:
as §1

The subject of test [3] is Echinochloa crus-galli (ECHCG). The test can be described thus: Example B pre-emergence herbicidal test, ECHCG. Particulars: Echinochloa crus-galli, 312 h, rate 250 g/ha, evaluated after 13 days, 100=total damage to plant, 0=no damage to plant. The method in brief: as §1
Test [4] concerns Avena fatua (AVEFA). As to the kind of experiment: Example B pre-emergence herbicidal test, AVEFA. Particulars: Avena fatua, 312 h, rate 250 g/ha, evaluated after 13 days, 100=total damage to plant, 0=no damage to plant. The method in brief: as §1
Test [5] deals with Lolium perenne (LOLPE). The test can be described thus: Example B post-emergence herbicidal test, LOLPE. To be noted: Lolium perenne, 312 h, rate 250 g/ha, evaluated after 13 days, scale 0-100, read-out: Post-emergence activity LOLPE (100=total damage to plant; 0=no damage to plant). The method, boiled down: (§2)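 Plants grown from seed in standard soil for 8 days in a glasshouse (24/16 °C day/night, 14 h light, 65% humidity), then sprayed with an aqueous solution from the active ingredient formulated in acetone/water (50:50) with 0.5% Tween 20. Damage scored after 13 days, 0 (none) to 100 (total).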

Test [6] concerns Alopecurus myosuroides (ALOMY). The test can be described thus: Example B post-emergence herbicidal test, ALOMY. To be noted: Alopecurus myosuroides, 312 h, rate 250 g/ha, evaluated after 13 days, scale 0-100, read-out: Post-emergence activity ALOMY (100=total damage to plant; 0=no damage to plant). The method, boiled down:
as §2

Test [7] deals with Echinochloa crus-galli (ECHCG). As to the kind of experiment: Example B post-emergence herbicidal test, ECHCG. To be noted: Echinochloa crus-galli, 312 h, rate 250 g/ha, evaluated after 13 days, scale 0-100, read-out: Post-emergence activity ECHCG (100=total damage to plant; 0=no damage to plant). The method in brief: as §2
In test [8] the test system is Avena fatua (AVEFA). As to the kind of experiment: Example B post-emergence herbicidal test, AVEFA. To be noted: Avena fatua, 312 h, rate 250 g/ha, evaluated after 13 days, scale 0-100, read-out: Post-emergence activity AVEFA (100=total damage to plant; 0=no damage to plant). The method, boiled down: as §2

For `Cc1cc(C)c(C2C(=O)CC(CC3CCN(C(=O)c4ccc(-c5ccccc5)cc4)CC3)C2=O)c(C)c1` (stereo not shown) [Compound T77], the pest or weed control at 250 g/ha was 0% in the test on Lolium perenne (LOLPE) [1]; 0% in test [2]; 0% in test [3]; 0% in the test with Avena fatua (AVEFA) [4]; 40% in the test with Lolium perenne (LOLPE) [5]; 30% in test [6]. The pest or weed control at 250 g/ha in test [7] came to 20%; with Avena fatua (AVEFA) [8], 40%.

With `Cc1ccc(C(=O)N2CCC(CC3CC(=O)C(c4c(C)cc(C)cc4C)C3=O)CC2)cc1` (stereo not shown) [Compound T78], the pest or weed control at 250 g/ha in the test with Lolium perenne (LOLPE) [1] came out at 30%; in test [2], 20%; in test [3], 30%; in the test with Avena fatua (AVEFA) [4], 0%; in the test with Lolium perenne (LOLPE) [5], 50%; in test [6], 40%. Moreover, the pest or weed control at 250 g/ha in test [7] came to 70%; with Avena fatua (AVEFA) [8], 40%.

Take `Cc1cc(C)c(C2C(=O)CC(CC3CCN(C(=O)C(C)(C)C)CC3)C2=O)c(C)c1` (stereo not shown) [Compound T79]: the pest or weed control at 250 g/ha with Lolium perenne (LOLPE) [1] is 90%; in test [2], 60%; in test [3], 60%; in the test on Avena fatua (AVEFA) [4], 20%; in the test on Lolium perenne (LOLPE) [5], 60%; in test [6] it was 60%. Further, the pest or weed control at 250 g/ha in test [7] turned out to be 70%; in the test on Avena fatua (AVEFA) [8], 80%.

Take `Cc1cc(C)c(C2C(=O)CC(CC3CCN(C(=O)C(C)C)CC3)C2=O)c(C)c1` (stereo not shown) [Compound T80]: the pest or weed control at 250 g/ha came to 100% with Lolium perenne (LOLPE) [1]; 70% in test [2]; 70% in test [3]; 70% with Avena fatua (AVEFA) [4]; 90% in the test with Lolium perenne (LOLPE) [5]; 90% in test [6]. For the same molecule, the pest or weed control at 250 g/ha stood at 80% in test [7] and 100% in the test with Avena fatua (AVEFA) [8].

With `COCC(=O)N1CCC(CC2CC(=O)C(c3c(C)cc(C)cc3C)C2=O)CC1` (stereo not shown) [Compound T81], the pest or weed control at 250 g/ha came out at 80% in the test on Lolium perenne (LOLPE) [1]; 80% in test [2]; 60% in test [3]; 80% in the test on Avena fatua (AVEFA) [4]; 90% in the test on Lolium perenne (LOLPE) [5]; 90% in test [6]. For the same molecule, the pest or weed control at 250 g/ha worked out at 80% in test [7] and 100% in the test on Avena fatua (AVEFA) [8].

On to `Cc1cc(C)c(C2C(=O)CC(CC3CCN(C(=O)Cc4ccccc4)CC3)C2=O)c(C)c1` (stereo not shown) [Compound T82], for which the pest or weed control at 250 g/ha in the test with Lolium perenne (LOLPE) [1] was 90%; in test [2] it was 50%; in test [3], 60%; in the test with Avena fatua (AVEFA) [4], 50%; with Lolium perenne (LOLPE) [5], 90%; in test [6], 90%. Moreover, the values for the pest or weed control at 250 g/ha (in test [7]; in the test on Avena fatua (AVEFA) [8]) were 80% and 100%, respectively.

For the molecule `CCC(=O)N1CCC(CC2CC(=O)C(c3c(C)cc(C)cc3C)C2=O)CC1` (stereo not shown) [Compound T83], the pest or weed control at 250 g/ha in the test on Lolium perenne (LOLPE) [1] turned out to be 90%; in test [2], 60%; in test [3] it was 90%; with Avena fatua (AVEFA) [4], 70%; with Lolium perenne (LOLPE) [5], 90%; in test [6] it was 80%. Moreover, the results for the pest or weed control at 250 g/ha (in test [7]; in the test with Avena fatua (AVEFA) [8]) were 70% and 100%, respectively.

For `CCCCC(=O)N1CCC(CC2CC(=O)C(c3c(C)cc(C)cc3C)C2=O)CC1` (stereo not shown) [Compound T85], the pest or weed control at 250 g/ha in the test with Lolium perenne (LOLPE) [1] worked out at 60%; in test [2], 60%; in test [3], 30%; with Avena fatua (AVEFA) [4] it was 20%; in the test on Lolium perenne (LOLPE) [5], 90%; in test [6], 90%. Besides, the pest or weed control at 250 g/ha came out at 80% in test [7] and 90% in the test with Avena fatua (AVEFA) [8].

On to `Cc1cc(C)c(C2C(=O)CC(CC3CCN(C(=O)OCC(Cl)(Cl)Cl)CC3)C2=O)c(C)c1` (stereo not shown) [Compound T86], for which the pest or weed control at 250 g/ha in the test on Lolium perenne (LOLPE) [1] turned out to be 100%; in test [2], 60%; in test [3] it was 50%; in the test on Avena fatua (AVEFA) [4], 30%; with Lolium perenne (LOLPE) [5] it was 70%; in test [6] it was 40%. In addition, the pest or weed control at 250 g/ha (in test [7]; in the test on Avena fatua (AVEFA) [8]) was 80% each time.

Take `Cc1cc(C)c(C2C(=O)CC(CC3CCN(C(=O)C(C)Cl)CC3)C2=O)c(C)c1` (stereo not shown) [Compound T87]: the pest or weed control at 250 g/ha with Lolium perenne (LOLPE) [1] is 100%; in test [2], 90%; in test [3], 60%; in the test on Avena fatua (AVEFA) [4], 90%; in the test with Lolium perenne (LOLPE) [5], 90%; in test [6], 70%. Also, the pest or weed control at 250 g/ha in test [7] was 70%; in the test on Avena fatua (AVEFA) [8] it was 90%.

Consider `Cc1cc(C)c(C2C(=O)CC(CC3CCN(C(=O)C4CCCCC4)CC3)C2=O)c(C)c1` (stereo not shown) [Compound T89], for which the pest or weed control at 250 g/ha in the test with Lolium perenne (LOLPE) [1] came to 70%; in test [2], 50%; in test [3], 60%; in the test on Avena fatua (AVEFA) [4], 10%; with Lolium perenne (LOLPE) [5] it was 40%; in test [6], 30%. For the same molecule, the pest or weed control at 250 g/ha in test [7] was determined as 40%; in the test with Avena fatua (AVEFA) [8] it was 20%.

For `Cc1cc(C)c(C2C(=O)CC(CC3CCN(C(=O)c4ccco4)CC3)C2=O)c(C)c1` (stereo not shown) [Compound T90], the pest or weed control at 250 g/ha worked out at 60% in the test on Lolium perenne (LOLPE) [1]; 40% in test [2]; 50% in test [3]; 60% in the test with Avena fatua (AVEFA) [4]; 80% in the test with Lolium perenne (LOLPE) [5]; 70% in test [6]. Moreover, the pest or weed control at 250 g/ha was 80% in test [7] and 100% in the test on Avena fatua (AVEFA) [8].

On to `Cc1cc(C)c(C2C(=O)CC(CC3CCN(S(=O)(=O)c4ccccc4)CC3)C2=O)c(C)c1` (stereo not shown) [Compound T91], for which the pest or weed control at 250 g/ha came out at 70% in the test with Lolium perenne (LOLPE) [1]; 20% in test [2]; 60% in test [3]; 40% in the test with Avena fatua (AVEFA) [4]; 50% in the test on Lolium perenne (LOLPE) [5]; 40% in test [6]. In addition, the pest or weed control at 250 g/ha amounted to 50% in test [7] and 90% in the test on Avena fatua (AVEFA) [8].

In the case of `Cc1cc(C)c(C2C(=O)CC(CC3CCN(S(=O)(=O)c4ccc(Cl)cc4)CC3)C2=O)c(C)c1` (stereo not shown) [Compound T92], the pest or weed control at 250 g/ha in the test with Lolium perenne (LOLPE) [1] came out at 30%; in test [2], 30%; in test [3], 40%; with Avena fatua (AVEFA) [4], 10%; in the test with Lolium perenne (LOLPE) [5], 20%; in test [6] it was 30%. The pest or weed control at 250 g/ha in test [7] came out at 40%; with Avena fatua (AVEFA) [8], 60%.

As for `Cc1cc(C)c(C2C(=O)CC(CC3CCN(S(=O)(=O)C(C)C)CC3)C2=O)c(C)c1` (stereo not shown) [Compound T93], the pest or weed control at 250 g/ha turned out to be 90% with Lolium perenne (LOLPE) [1]; 60% in test [2]; 90% in test [3]; 60% in the test on Avena fatua (AVEFA) [4]; 70% in the test with Lolium perenne (LOLPE) [5]; 60% in test [6]. Further, the pest or weed control at 250 g/ha in test [7] turned out to be 60%; in the test on Avena fatua (AVEFA) [8] it was 70%.

For `Cc1cc(C)c(C2C(=O)CC(CC3CCN(S(C)(=O)=O)CC3)C2=O)c(C)c1` (stereo not shown) [Compound T94], the pest or weed control at 250 g/ha is 90% with Lolium perenne (LOLPE) [1]; 90% in test [2]; 80% in test [3]; 90% in the test on Avena fatua (AVEFA) [4]; 90% in the test with Lolium perenne (LOLPE) [5]; 100% in test [6]. Moreover, the pest or weed control at 250 g/ha in test [7] is 90%; in the test on Avena fatua (AVEFA) [8], 100%.

In the case of `CCS(=O)(=O)N1CCC(CC2CC(=O)C(c3c(C)cc(C)cc3C)C2=O)CC1` (stereo not shown) [Compound T95], the pest or weed control at 250 g/ha in the test on Lolium perenne (LOLPE) [1] was found to be 100%; in test [2], 90%; in test [3] it was 60%; with Avena fatua (AVEFA) [4], 90%; in the test with Lolium perenne (LOLPE) [5], 100%; in test [6] it was 90%. The pest or weed control at 250 g/ha in test [7] turned out to be 70%; in the test with Avena fatua (AVEFA) [8], 100%.
